Results taken from patent US20050246797A1, “Gene participating in the synthesis of brassinosteroid” (priority 2002, published 2005).
Where two headings read alike, the source gives them in different places.

What was measured:
[1] = Concentrations of brassinosteroids in Arabidopsis strains by HPLC and GC-MS
Description: The concentrations of brassinosteroids were determined in wild strains (Ws-2), the strain of reference example 1 (rot3-1 and rot3-5, suppressed function of ROT3) and the strain of reference example 3 (rot3/CYP90D1, suppressed function of ROT3 and CYP90D1) of Arabidoposis. The concentration was determined by harvesting the ground part of the plants at the time of rosette formation by reaping, by freezing and drying, and by detecting using HPLC and GC-MS.

[2] = system: strains of suppressed function of both ROT3 and CYP90D1; test: Treatment of plants/leaves of the ROT3- and CYP90D1-suppressed strain with brassinosteroid intermediates or brassinolide (leaf morphology, FIG. 3); format: in vivo, Arabidopsis; conditions: aqueous solution 0.1 μM, submersion with gentle shaking
Description: The strain with suppressed function of both ROT3 and CYP90D1 prepared in reference example 2 was cultured from seeds in sterilized conditions. The seeds of the above-described strain were seeded on the MS medium (solidified by 0.2% Gelrite) supplemented with 2% (w/v) sucrose and were conventionally cultured at 23° C. under continuous illumination after seeding under sterilized conditions.
The above-described plants (strains of suppressed function of both ROT3 and CYP90D1) were cultured in the above-described aqueous solution at the level of submersion under the solution with gently shaking. In the case of the treatment of leaves with the above-described intermediates or brassionolide, leafstalks were cut out by a surgical knife after taking out the plants under sterilized conditions and were treated in the same way. […] Namely, ROT3 and CYP90D1 are cooperatively involved in the synthesis of brassinolide, the final product of the biosynthetic pathway of brassinosteriods.

[3] = rot3/CYP90D1 (suppressed function of ROT3 and CYP90D1), ground part of plants at rosette formation

| amount in the strain with suppressed function of both ROT3 and CYP90D1 ([1]; rot3/CYP90D1, in words) | SMILES | concentration of brassinosteroid, rot3/CYP90D1 [1, 3] | effect on leaf size/morphology of plants without the function of ROT3 and CYP90D1 [2] | concentration of brassinosteroid, rot3/CYP90D1 [1] [ng/g] |
| --- | --- | --- | --- | --- |
| – | CC(C)[C@H](C)[C@@H](O)[C@H](O)[C@@H](C)[C@H]1CC[C@H]2[C@@H]3CC[C@H]4C[C@@H](O)CC[C@]4(C)[C@H]3CC[C@]12C [6-Deoxoteasterone] | 0.26 ng/g | – | – |
| extremely decreased | CC(C)[C@H](C)[C@@H](O)[C@H](O)[C@@H](C)C1CCC2C3OC(=O)[C@H]4C[C@H](O)[C@H](O)C[C@]4(C)C3CC[C@@]21C (stereo partly shown) [Brassinolide] | — (— in the table shows that the value is less than the limit of detection (0.001 ng/g)) | induced large size of leaves | – |
| – | CC(C)[C@H](C)[C@@H](O)[C@H](O)[C@@H](C)[C@H]1CC[C@H]2[C@@H]3CC[C@H]4C[C@H](O)CC[C@]4(C)[C@H]3CC[C@]12C [3-Deoxotyphasterol] | 0.38 ng/g | – | – |
| – | CC(C)[C@H](C)[C@@H](O)[C@H](O)[C@@H](C)[C@H]1CC[C@H]2[C@@H]3CC[C@H]4C[C@H](O)[C@H](O)C[C@]4(C)[C@H]3CC[C@]12C [6-Deoxocastasterone] | – | – | 0.034 |
| – | CC(C)[C@H](C)[C@@H](O)[C@H](O)[C@@H](C)[C@H]1CC[C@H]2[C@@H]3CC(=O)[C@H]4C[C@H](O)[C@H](O)C[C@]4(C)[C@H]3CC[C@]12C [Castasterone] | 0.020 ng/g | – | – |
